{
  "source": "paper PMC10992699",
  "about": "“Comparative structure activity and target exploration of 1,2-diphenylethynes in Haemonchus contortus and Caenorhabditis elegans” (International Journal for Parasitology: Drugs and Drug …, 2024)",
  "key": {"UNC-11": {"target": "T1, UNC-11 (Caenorhabditis elegans, UniProt Q9XZI6)", "T1 construct": "from tissue; host or cells: whole-worm lysate of C. elegans N2 (young adults / L4s)", "T1 sequence (Q9XZI6 whole entry)": "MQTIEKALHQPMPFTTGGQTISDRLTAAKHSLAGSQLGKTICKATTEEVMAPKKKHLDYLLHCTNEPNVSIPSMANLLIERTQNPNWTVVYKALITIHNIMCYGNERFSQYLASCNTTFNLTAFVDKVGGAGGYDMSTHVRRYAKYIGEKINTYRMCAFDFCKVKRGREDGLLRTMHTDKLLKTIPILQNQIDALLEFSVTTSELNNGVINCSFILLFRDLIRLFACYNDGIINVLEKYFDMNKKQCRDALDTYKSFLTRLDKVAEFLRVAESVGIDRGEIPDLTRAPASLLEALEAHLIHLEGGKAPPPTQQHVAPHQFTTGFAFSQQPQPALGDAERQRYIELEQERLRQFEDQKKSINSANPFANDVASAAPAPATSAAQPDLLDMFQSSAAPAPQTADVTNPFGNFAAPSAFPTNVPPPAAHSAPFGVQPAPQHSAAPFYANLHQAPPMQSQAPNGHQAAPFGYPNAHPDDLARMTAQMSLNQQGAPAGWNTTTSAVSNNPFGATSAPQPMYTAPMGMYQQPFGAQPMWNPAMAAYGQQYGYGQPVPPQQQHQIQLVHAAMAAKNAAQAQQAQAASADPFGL", "experiment": "Thermal proteome profiling (TPP)", "type": "binding", "details": "compound 50 μM, C. elegans lysate, 37-67 °C"}, "C. elegans young adults": {"tested_on": "C. elegans young adults", "experiment": "C. elegans young adult motility dose-response assay", "type": "cell-based, Caenorhabditis elegans", "details": "Caenorhabditis elegans, 40 h, young adults; 40 h incubation; three independent assays in triplicate; read-out: Worm motility IC50 ± SD, C. elegans young adults", "experimental": "The eggs were then washed five times with 15 mL of sterile M9 buffer (centrifugation at 500×g, 2 min). […] were collected from plates and washed twice with sterile M9 buffer by centrifugation (500×g, 2 min) to remove E. coli OP50, and then resuspended to a concentration of 100 larvae per 50 μL in sterile (autoclaved) LB*. The dose-response assay for C. elegans followed a well-established protocol ([Taki et al., 2021a]) and was employed to evaluate the potency of hit compounds against this nematode. […] Two compounds, monepantel (ZolvixTM; Elanco, Australia) and moxidectin ([…], France) were used as positive controls and prepared in the same manner as the test compounds. […] The test compounds and positive control compounds were arrayed in triplicate across individual flat-bottom 96-well microplates (cat. no. 3596; Corning, Corning, NY, USA), with six wells on each plate containing the negative control. Added to each well were 100 C. elegans in 50 μL of LB* to give a final volume of 100 μL. Plates were then placed in an incubator ([…], model no. IMP180, Thermo Fisher Scientific, USA) at 20 °C for 40 h. […] Over 15 min, disturbance of an infrared beam in individual wells was recorded as an 'activity count'. Raw 'activity counts' for each well were normalised to the negative controls. The compound concentrations were log10-transformed and fitted using a variable slope four-parameter equation, using the ordinary least squares fit model, employing the program Prism (v.9.1.0 GraphPad Software, San Diego, CA, USA)."}, "[1]": {"tested_on": "adult females of Haemonchus contortus", "experiment": "Motility of adult female H. contortus in vitro", "type": "cell-based", "details": "40 μM; 24 h of incubation; normalised to negative control", "experimental": "Adult H. contortus were collected from the abomasa of sheep infected for 10 weeks, washed extensively with phosphate-buffered saline (PBS, pH 7.4) and subsequently in RPMI 1640 media supplemented with final concentrations of 2 mM L-glutamine, 100 IU/mL of penicillin, 100 μg/mL of streptomycin and 0.25 μg/mL of amphotericin B (Thermo Fisher Scientific, Scoresby, VIC, Australia; this supplemented RPMI was designated RPMI*). Female and male worms were collected and separated immediately prior to compound testing.\nThe activity of UMW-9729 and six derivatives (12, 14, 15, 16, 18 and 25) was assessed on adult female specimens of H. contortus in an established assay ([Taki et al., 2020]). The compound was added in triplicate to the wells of a 24-well plate (cat. no. 3524; Corning, USA) at a concentration of 40 μM in 500 μL of RPMI* (RPMI supplemented with final concentrations of 2 mM L-glutamine, 100 IU/mL of penicillin, 100 μg/mL of streptomycin and 0.25 μg/mL of amphotericin B; Thermo Fisher Scientific, Scoresby, VIC, Australia). Two positive-control compounds, monepantel and moxidectin, and a negative control containing 1 % (v/v) DMSO only, were included in triplicates on the same plate. Three adult females were added to each of the triplicate wells containing either the test compound or the controls and placed in a CO2 incubator (10 % (v/v) CO2, 40 °C, >90 % relative humidity) for 1 day. A video recording (30 s) of each well was taken at 3 h, 6 h, 12 h and 24 h during the total incubation period to assess the reduction in worm motility, which was scored as 3 (“good”), 2 (“low”), 1 (“very low”) or 0 (“no movement”; cf. [Taki et al., 2020]). For each test or control compound, the motility scores for each of the triplicate wells were calculated, normalised with reference to the negative control (100 % motility) and recorded as a percentage."}, "[2]": {"experiment": "HepG2 cytotoxicity (CellTiter-Glo)", "type": "cell-based", "details": "human, HepG2 cells, read-out: half-maximal cytotoxic concentration (CC50)", "experimental": "The cytotoxicity of UMW-9729 and six key derivatives (12, 14, 15, 16, 18 and 25) on human hepatoma (HepG2) cells was evaluated as described previously ([Gilson et al., 2017]). In short, HepG2 cells were first cultured (in an incubator at 5 % (v/v) CO2, 37 °C, >90 % humidity) in Dulbecco's modified Eagle's medium (DMEM) supplemented with 5 % foetal bovine serum (FBS). Test compounds were serially-diluted (10-points, 2-fold serial dilution, top concentration of 50 μM) in DMEM + 10 % FBS, adjusted to a 0.5 % DMSO concentration and arrayed across a 384-well plate. Bortezomib (10 μM) was used as a positive control; 0.5 % DMSO was used as a negative control. HepG2 cells (1 × 10^3 cells per 50 μL of DMEM + 10 % FBS) were then seeded into wells of the assay plate; plates were the incubated (5 % (v/v) CO2, 37 °C, >90 % humidity) for 48 h. Cell proliferation was subsequently determined using CellTiter-Glo (Promega) and normalised using the negative-controls to calculate as a percentage. All compounds were tested in duplicate. The half-maximal cytotoxic (CC50) values were calculated by the Dotmatics (v.5.3) and Spotfire (v.7.11.1) software using a nonlinear regression four-parameter fit analysis."}},
  "data": [
    {"smiles": "C(#Cc1ccc(-c2ccn[nH]2)cc1)c1ccccc1", "note": "[UMW-9729]", "values": [
      {"measurement": "F-statistic", "setting": "UNC-11; NPARC", "result": 23.0},
      {"measurement": "thermal stability of protein in the presence of compound", "setting": "UNC-11", "result": "stabilised"},
      {"measurement": "IC50", "setting": "C. elegans young adults", "result": "14 ± 2.9", "unit": "µM"},
      {"measurement": "reduction of worm motility, adult females of H. contortus", "setting": "[1]", "result": "did not"},
      {"measurement": "CC50 at 48 h", "setting": "[2]", "result": "> 40", "unit": "µM"}
    ]}
  ]
}
